The text below walks through data of patent US10106501B2, “Nuclear receptor modulators” (AbbVie Inc., priority 2015, dated 2018).

Usually IC50 stands for the concentration needed to halve the response being measured.

The assay deals with T1, chimeric human RORγ-Gal4 receptor (Homo sapiens, UniProt P51449).
T1 sequence (P51449 269-508 limits assumed): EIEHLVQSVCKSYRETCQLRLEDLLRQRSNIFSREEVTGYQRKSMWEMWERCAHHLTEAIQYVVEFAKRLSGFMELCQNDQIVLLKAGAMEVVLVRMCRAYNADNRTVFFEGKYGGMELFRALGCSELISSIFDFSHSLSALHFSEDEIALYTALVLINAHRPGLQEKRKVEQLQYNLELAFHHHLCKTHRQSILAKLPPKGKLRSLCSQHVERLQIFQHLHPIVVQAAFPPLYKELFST
Kind of assay: transient transactivation assay (RORγ-Gal4 luciferase reporter). The assay is classed as cell-based. The following applies: Cos-7 cells transfected with RORγ-Gal4 and 5Gal4 pGL3 TK Luc reporter; overnight incubation; T0901317 at 10^-5 M as reference; read-out: IC50. In general terms: In a reporter assay the amount or activity of a reporter protein is the signal.
As for `Cc1cc(C(F)(F)F)cc2c1cc(Cc1c(Cl)ccc(C(=O)N3CCN(C(C)(C)C(=O)O)CC3)c1Cl)n2C` [Example T, 2-(4-(2,4-dichloro-3-((1,4-dimethyl-6-(trifluoromethyl)-1H-indol-2-yl)methyl)benzoyl)piperazin-1-yl)-2-methylpropanoic acid], the IC50 is 100 to 500 nM.

Consider `Cc1cc(C(F)(F)F)cc2c1cc(Cc1c(Cl)ccc(C(=O)N3C[C@@]4(C(=O)O)CC[C@@H]3C4)c1Cl)n2C` [Example B-16], for which the IC50 fell in the range of 100 to 500 nM. For `Cc1cc(C#N)cc2c1cc(Cc1c(Cl)ccc(O[C@H]3CC[C@H](C(=O)O)C3)c1Cl)n2C` (relative stereo) [Example AG, trans-3-(2,4-dichloro-3-((6-cyano-1,4-dimethyl-1H-indol-2-yl)methyl)phenoxy)cyclopentanecarboxylic acid], the concentration for half-maximal inhibition (IC50) lay in the range of 100 to 500 nM. Next, `Cc1ccc(C(=O)N2CCOCC2)c(C)c1C(=O)c1cc2c(C)cc(C(F)(F)F)cc2n1C` [Example G1, (2,6-dimethyl-3-(morpholine-4-carbonyl)phenyl)(1,4-dimethyl-6-(trifluoromethyl)-1H-indol-2-yl)methanone]: 100 to 500 nM. As for `Cc1ncc(C(=O)N2CCC(C3COC3)CC2)c(C)c1C(=O)c1cc2c(C)cc(C#N)cc2n1C` [Example BD, 2-[2,4-dimethyl-5-[4-(oxetan-3-yl)piperidine-1-carbonyl]pyridine-3-carbonyl]-1,4-dimethyl-indole-6-carbonitrile], the IC50 lay in the range of 1000 to 10000 nM. In the case of `Cc1cc(C#N)cc2c1cc(Cc1c(Cl)ccc(O[C@H]3CC[C@H](C(=O)O)CC3)c1Cl)n2C` [Example AF, trans-4-(2,4-dichloro-3-((6-cyano-1,4-dimethyl-1H-indol-2-yl)methyl)phenoxy)cyclohexanecarboxylic acid] it was 100 to 500 nM.

`Cc1cc(C(F)(F)F)cc2c1nc(Cc1c(Cl)ccc(CN3CCC4(CCOC4)CC3)c1Cl)n2C` [BW-8]: the IC50 was in the range of 100 to 500 nM. Turning to `Cc1cn(Cc2c(Cl)ccc(C(=O)N3CC[C@@H](C(=O)O)[C@@H](C)C3)c2Cl)c2c(C)cc(C(F)(F)F)cc12` [DH1-2], the IC50 is under 100 nM.

`COC[C@@H]1CN(C(=O)c2ccc(Cl)c(Cc3cc4c(C)cc(C(F)(F)F)cc4n3C)c2Cl)C[C@H]1C(=O)O` [Example B-15]: the IC50 lay within 1000 to 10000 nM. Consider `Cc1nn(C(=O)c2c(Cl)ccc(C(=O)N3CCC(CC(=O)O)CC3)c2Cl)c2c(C)cc(C(F)(F)F)cc12` [EA, 2-(1-(2,4-dichloro-3-(3,7-dimethyl-5-(trifluoromethyl)-1H-indazole-1-carbonyl)benzoyl)piperidin-4-yl)acetic acid], for which the half-maximal inhibitory concentration (IC50) was under 100 nM. In the case of `Cc1cc(C(F)(F)F)cn2c(C)c(Cc3c(Cl)ccc(C(=O)N4CCC(C(C)(C)O)CC4)c3Cl)nc12` [CT-3] it was under 100 nM; in that of `Cc1cc(C(F)(F)F)nn2c(C)c(Cc3c(Cl)ccc(C(=O)N4CCN(C5COC5)CC4)c3Cl)nc12` [CZ-1], 100 to 500 nM; in that of `Cc1cc(C(F)(F)F)cc2c1nc(Cc1c(Cl)ccc(C(=O)N3C[C@@H]4[C@H](C3)[C@H]4C(=O)O)c1Cl)n2C` [Example BL, (1R,5S,6r)-3-(2,4-dichloro-3-((1,4-dimethyl-6-(trifluoromethyl)-1H-benzo[d]imidazol-2-yl)methyl)benzoyl)-3-azabicyclo[3.1.0]hexane-6-carboxylic acid], 1000 to 10000 nM. Next, `Cc1cc(C(F)(F)F)cn2c(C)c(Cc3c(Cl)ccc(C(=O)N4CCC(O)C4)c3Cl)nc12` (stereo not shown) [CT-4]: over 10000 nM. Next, `Cc1cc(C#N)cc2c1nc(Cc1c(Cl)ccc(C(=O)N3CCC(C4COC4)CC3)c1Cl)n2C` [BN-12]: 100 to 500 nM; `Cc1cc(C(F)(F)F)cc2c1c(Cc1c(Cl)ccc(C(=O)N3CCC(CC(=O)O)CC3)c1Cl)cn2C` [F, 2-(1-(2,4-dichloro-3-((1,4-dimethyl-6-(trifluoromethyl)-1H-indol-3-yl)methyl)benzoyl)piperidin-4-yl)acetic acid]: under 100 nM; `Cc1cc(C(F)(F)F)cc2c1nc(Cc1c(Cl)ccc(C(=O)N3CCC(CC(C)O)CC3)c1Cl)n2C` (stereo not shown) [BJ-19]: 100 to 500 nM. Regarding `Cc1cc(C#N)cc2c1cc(Cc1c(Cl)ccc(C(=O)N3CCC(N(C)C)C3)c1Cl)n2C` (stereo not shown) [AA-14], the IC50 fell in the range of 100 to 500 nM.

With `CCN(CCO)Cc1ccc(Cl)c(Cc2nc3c(C)cc(C(F)(F)F)cc3n2C)c1Cl` [BW-18], the concentration for half-maximal inhibition (IC50) was 500 to 1000 nM. In the case of `Cc1cn(Cc2c(Cl)ccc(C(=O)N3CC[C@H](C(=O)O)[C@H](C)C3)c2Cl)c2c(C)cc(C(F)(F)F)cc12` [DH1-1] it was under 100 nM; in that of `Cc1cn(C(=O)c2c(Cl)ccc(C(=O)N3CC[C@@H](C(=O)O)[C@@H](C)C3)c2Cl)c2c(C)cc(C(F)(F)F)cc12` [DJ1-3], under 100 nM; in that of `Cc1nn(Cc2c(Cl)ccc(C(=O)N3CCC(CC(=O)O)CC3)c2Cl)c2ccc(C(F)(F)F)cc12` [EF, 2-(1-(2,4-dichloro-3-((3-methyl-5-(trifluoromethyl)-1H-indazol-1-yl)methyl)benzoyl)piperidin-4-yl)acetic acid], under 100 nM.

Turning to `Cc1c(C#N)ccc2c1cc(Cc1c(Cl)ccc(C(=O)N3CCOCC3)c1Cl)n2C` [EX, 2-(2,6-dichloro-3-(morpholine-4-carbonyl)benzyl)-1,4-dimethyl-1H-indole-5-carbonitrile], the IC50 was under 100 nM. In the case of `Cc1cc(C(F)(F)F)cc2c1cc(C(=O)c1c(Cl)ccc(C(=O)N3C[C@@H]4[C@H](C3)[C@H]4C(=O)O)c1Cl)n2C` [AQ-2] it was 100 to 500 nM.

For `COCCC1CCN(C(=O)c2ccc(Cl)c(Cc3cc4c(C)cc(C(F)(F)F)nc4n3C)c2Cl)CC1` [Example FT, (2,4-dichloro-3-((1,4-dimethyl-6-(trifluoromethyl)-1H-pyrrolo[2,3-b]pyridin-2-yl)methyl)phenyl)(4-(2-methoxyethyl)piperidin-1-yl)methanone], the IC50 was under 100 nM. Next, `Cc1cc(C(F)(F)F)cc2c1cc(Cc1c(Cl)ccc(C(=O)N3CC(CC(=O)O)C3)c1Cl)n2C` [Example B-9]: under 100 nM; `Cc1cc(C(F)(F)F)cc2c1cc(Cc1c(Cl)ccc(C(=O)N[C@H]3CC[C@@H](C(=O)O)CC3)c1Cl)n2C` [Example B-25]: under 100 nM; `Cc1cc(OC(F)(F)F)cc2c1c(Cc1c(Cl)ccc(C(=O)N3CCC(C(=O)O)CC3)c1Cl)cn2C` [DU, 1-[2,4-dichloro-3-[[1,4-dimethyl-6-(trifluoromethoxy)-1H-indol-3-yl]methyl]benzoyl]piperidine-4-carboxylic acid]: under 100 nM. On to `Cc1cc(C(F)(F)F)cc2c1cc(Cc1c(Cl)ccc(C(=O)N3CC4(CC(CC(=O)O)C4)C3)c1Cl)n2C` [Example B-17], for which the IC50 is under 100 nM. In the case of `Cc1cc(C(F)(F)F)cn2c(C)c(Cc3c(Cl)ccc(C(=O)N4CCC(N(C)C)CC4)c3Cl)nc12` [CT-5] it was 500 to 1000 nM; in that of `Cc1cc(C(F)(F)F)cc2c1cc(Cc1c(Cl)ccc(C(=O)N3CCC(O)C(C(=O)O)C3)c1Cl)n2C` (stereo not shown) [Example B-10], 1000 to 10000 nM. Next, `Cc1cc(C(F)(F)F)cc2c1cc(Cc1c(Cl)ccc(C(=O)N3CCC(C(O)C(=O)O)CC3)c1Cl)n2C` (stereo not shown) [Example B-20]: under 100 nM; `CCn1c(Cc2c(Cl)ccc(C(=O)N3CCOCC3)c2Cl)cc2c(C)cc(C(F)(F)F)cc21` [Example D-1]: under 100 nM; `Cc1cc(C#N)cc2c1cc(Cc1c(Cl)ccc(C(=O)N3CCC4(CC3)COC4)c1Cl)n2C` [AA-25]: 100 to 500 nM.

As to `Cn1c(Cc2c(Cl)ccc(C(=O)N3CCC(O)CC3)c2Cl)cc2ccc(C(F)(F)F)cc21` [L, (2,4-dichloro-3-((1-methyl-6-(trifluoromethyl)-1H-indol-2-yl)methyl)phenyl)(4-hydroxypiperidin-1-yl)methanone], the half-maximal inhibitory concentration (IC50) is under 100 nM.

As to `COCC1CCN(C(=O)c2ccc(Cl)c(Cc3nc4c(C)cc(C(F)(F)F)cc4n3C)c2Cl)CC1` [BJ-13], the IC50 lay within 100 to 500 nM.

As for `Cc1cc(OC(F)(F)F)cc2c1c(Cc1c(Cl)ccc(C(=O)N3CCC(CC(=O)O)CC3)c1Cl)cn2C` [DU1-1], the concentration for half-maximal inhibition (IC50) is under 100 nM. Consider `Cc1cc(C(F)(F)F)nc2c1cc(Cc1c(Cl)ncc(C(=O)N3CC[C@@H](CC(=O)O)[C@@H](C)C3)c1Cl)n2C` [Example GC, 2-((3R,4S)-1-(4,6-dichloro-5-((1,4-dimethyl-6-(trifluoromethyl)-1H-pyrrolo[2,3-b]pyridin-2-yl)methyl)nicotinoyl)-3-methylpiperidin-4-yl)acetic acid], for which the IC50 was under 100 nM. For `Cc1cc(OC(F)(F)F)cc2c1c(Cc1c(Cl)ncc(C(=O)N3CCC(CC(=O)O)CC3)c1Cl)cn2C` [DY, 2-[1-[4,6-dichloro-5-[[1,4-dimethyl-6-(trifluoromethoxy)-1H-indol-3-yl]methyl]pyridine-3-carbonyl]-4-piperidyl]acetic acid], the 50% inhibitory concentration (IC50) is under 100 nM. Next, `Cc1cc(C(F)(F)F)cc2c1cc(Cc1c(Cl)ccc(C(=O)N3C[C@@H]4C(C(=O)O)[C@@H]4C3)c1Cl)n2C` (stereo partly shown) [Example B-8]: under 100 nM; `Cc1ccc(C(=O)N2CCOCC2)c(C)c1C(O)c1cc2c(C)cc(C(F)(F)F)cc2n1C` (stereo not shown) [K, (3-((1,4-dimethyl-6-(trifluoromethyl)-1H-indol-2-yl)(hydroxy)methyl)-2,4-dimethylphenyl)(morpholino)methanone]: 100 to 500 nM.

With `C[C@H]1CN(C(=O)c2ccc(Cl)c(Cc3cc4c(F)cc(C(F)(F)F)cc4n3C)c2Cl)CC[C@H]1C(=O)O` [FE-4], the IC50 is under 100 nM. In the case of `Cc1cc(Br)cc2c1cc(Cc1c(Cl)ccc(C(=O)N3CCOCC3)c1Cl)n2C` [Example AX, (3-((6-bromo-1,4-dimethyl-1H-indol-2-yl)methyl)-2,4-dichlorophenyl)(morpholino)methanone] it was under 100 nM.
